Assay results from the NIST ThermoML archive (doi:10.1021/acs.jced.5b00838).

Test: excess molar enthalpy (molar enthalpy of mixing); xn = mol fraction of the nth substance listed
Conditions: 100 kPa, Liquid, isothermal titration calorimetry

CCCCCCCOC [1-methoxyheptane] + CC#N
excess molar enthalpy [kcal/mol]
Conditions	298.15 K	308.15 K
x2 = 0.0304	–	0.0322
x2 = 0.0307	0.0291	–
x2 = 0.059	–	0.0602
x2 = 0.0595	0.0573	–
x2 = 0.0859	–	0.0845
x2 = 0.0867	0.0816	–
x2 = 0.1114	–	0.106
x2 = 0.1123	0.103	–
x2 = 0.1354	–	0.125
x2 = 0.1366	0.121	–
x2 = 0.1799	–	0.156
x2 = 0.1813	0.151	–
x2 = 0.22	–	0.181
x2 = 0.2216	0.175	–
x2 = 0.2563	–	0.201
x2 = 0.2582	0.194	–
x2 = 0.2894	–	0.216
x2 = 0.2914	0.209	–
x2 = 0.3197	–	0.229
x2 = 0.3218	0.221	–
x2 = 0.3732	–	0.248
x2 = 0.3754	0.239	–
x2 = 0.4188	–	0.26
x2 = 0.4212	0.25	–
x2 = 0.4583	–	0.268
x2 = 0.4607	0.258	–
x2 = 0.5008	–	0.273
x2 = 0.5033	0.263	–
x2 = 0.5372	–	0.275
x2 = 0.5396	0.264	–
x2 = 0.5686	–	0.275
x2 = 0.571	0.264	–
x2 = 0.596	–	0.273
x2 = 0.5983	0.263	–
x2 = 0.6246	–	0.269
x2 = 0.6269	0.259	–
x2 = 0.6494	–	0.265
x2 = 0.6517	0.256	–
x2 = 0.6712	–	0.261
x2 = 0.6733	0.251	–
x2 = 0.6934	–	0.255
x2 = 0.6955	0.246	–
x2 = 0.7111	0.239	0.255
x2 = 0.7148	0.24	0.249
x2 = 0.7318	0.234	0.248
x2 = 0.7322	0.232	0.243
x2 = 0.7469	0.228	0.238
x2 = 0.7547	0.223	0.237
x2 = 0.7604	0.223	0.231
x2 = 0.7692	–	0.227
x2 = 0.7786	0.212	–
x2 = 0.7954	–	0.213
x2 = 0.8041	0.199	–
x2 = 0.8236	–	0.195
x2 = 0.8313	0.182	–
x2 = 0.8414	–	0.182
x2 = 0.8485	0.171	–
x2 = 0.86	–	0.168
x2 = 0.8664	0.157	–
x2 = 0.8795	–	0.151
x2 = 0.8851	0.141	–
x2 = 0.8999	–	0.131
x2 = 0.9047	0.123	–
x2 = 0.9212	–	0.109
x2 = 0.9251	0.101	–
x2 = 0.936	–	0.0913
x2 = 0.9391	0.0851	–
x2 = 0.9512	–	0.0721
x2 = 0.9536	0.0668	–
x2 = 0.9669	–	0.0506
x2 = 0.9686	0.0464	–
x2 = 0.9832	–	0.0265
x2 = 0.9841	0.0235	–
